Measurements reported in US9096499B2, “Compounds for treatment of cell proliferative diseases” (Board of Regents, The University of Texas System, priority 2003, dated 2015).
“Also recorded” adds a separate entry of the source.

Key:
c-myc [1] = assay: c-myc protein immunoblot in LP non-Hodgkin lymphoma cells; type: cell-based
Protocol: Additional cell types were examined for response to treatment with WP1066.
(§1) Further studies were conducted to determine the dose and time dependent effects of these new compounds on IL-6 mediated Stat3 activation, c-myc protein expression and anti-proliferative of LP and other cell types.

[2] = test system: MM-1, Mino, WDT-2, WDT-3, K562, K562-R cell lines; assay: Anti-proliferative/apoptotic action on c-myc overexpressing cell lines (FIG. 5); type: cell-based; conditions: FIG. 5, incl. Imatinib-resistant K562-R
Source text: The anti-proliferative/apoptotic actions of WP1066 were also examined on cell lines known to overexpress c-myc. […] Thus WP1066 clearly exerts a potent inhibition of cell proliferation and/or survival in multiple cancer cell lines, and WP1066 will be used as a therapeutic.

Stat3 [3] = assay: IL-6 mediated Stat3 activation immunoblot in LP cells; type: cell-based; conditions: 3-25 μM
Protocol: as §1

[4] = test system: human A375 melanoma tumors; assay: A375 melanoma tumors in nude mice; type: in vivo, Swiss nude mice; conditions: 40 mg/kg i.p. every other day, 8 injections from day 7, to day 21
Protocol: The results of animal studies of human A375 melanoma tumors growing in nude mice, treated with WP1066 after tumors reached a palpable size, are shown in FIG. 8. The following animal model was used to evaluate the anti-tumor and anti-cancer effects of the compounds: on Day 0, A375 cells were suspended to 20×10^6 cells/ml in RPMI 1640 medium. On day 0, 0.2 ml of this suspension containing A375 cells was injected (s.c.) into female Swiss nude mice 6-7 weeks of age. On Day 7, 40 mg/kg of WP1066 was injected (i.p.) into the above mice in a 0.1 ml suspension of DMSO/PEG300 (50/50) on a qd, every other day schedule for 8 injections. Five mice per experimental group were used, including a vehicle (DMSO/PEG300) control group. Animals received 40 mg/kg WP1066 every other day […] for a total of 8 injections. The control group reached maximum tumor burden at day 21, and for this reason the experiment was stopped.

MM-1 MM cells = assay: MTT cell growth and survival assay, MM-1 MM cells; type: cell-based; conditions: 72 hours; for IC50: MTT assay, read-out: IC50 (μM) MM1
Protocol: (§2) To determine the effect of AG and WP compounds on MM cell growth/survival, MM cells were incubated with the indicated concentration of AG or WP for 72 hours before cell growth and survival were estimated by MTT assay.
(§3) To determine the effect of AG and WP compounds on MM cell growth/survival MM cells were incubated with the indicated concentration of AG or WP for 72 hours before cell growth and survival were estimated by MTT assay.

c-myc [5] = assay: c-myc protein expression by immunoblot in MM cells; type: cell-based; parameters: key to C-Myc: (inhibition = ↓); (no effect) = —; conditions: for C-Myc: c-myc downregulation, immunoblot
Protocol: To determine the effect of compounds on both Stat3 activation and c-myc protein expression MM-1, OCI-My5 and U266 cells were incubated with 25 μM of AG1801, AG490, WP1038, WP1039, WP1051, or WP1052 for 2 hours before cells were stimulated with 2 ng/ml IL-6 for 10 min. Cell lysates were prepared and immunoblotted for p-Stat3, Stat3, c-myc and actin (as a control).
To determine the temporal effects and mechanism of action of AG490 and AG1801 action on c-myc expression in MM cells, MM-1 cells were incubated with 0, 25, or 50 μM of AG490 or AG1801 and harvested at 30, 60, or 120 min. Lysates were immunoblotted for c-myc or actin as a protein loading control. […] Semi-quantitative PCR was used to measure changes in c-myc mRNA extracted from cells treated for 30 min with AG1801 at 25 μM. GAPDH PCR was used as a control.
These compounds were evaluated for their signal inhibitory and anti-proliferative/apoptotic properties on multiple myeloma, lymphoma and chronic myelogenous leukemia cell lines. WP1015, WP1034, AG1801, and AG490 were tested across a range of concentrations (6,12, and 25 μM) for their ability to inhibit c-myc expression using immunoblots.
These immunoblots tested a range of concentrations (1.56-25 μM for WP compounds) and used β-actin as a control.

c-myc/Stat3 = assay: Stat3/c-myc inhibitory activity in MM-1 cells (FIG. 7); type: cell-based
Source text: An improved inhibition of c-myc/Stat3 by WP1066, WP1130, and WP1129 was observed (FIG. 7). The compounds were compared with regard to their Stat3/c-myc inhibitory activity in MM-1 cells.

OCI-My5 cells = assay: Caspase activation and PARP cleavage in OCI-My5 cells; type: cell-based; conditions: 12.5 and 25 μM
Protocol: To determine whether AG1801 effects caspase activation in MM cells, OCI-My5 cells were treated as described above before cell lysates were examined for casapase activation and PARP cleavage. […] At 12.5 and 25 μM, AG490 was ineffective in caspase activation and PARP clevage in these cells.

[6] = test system: MM colonies from bone marrow aspirates of MM patients; assay: Primary MM colony formation in methyl-cellulose; type: cell-based, human; conditions: 25 μM, 7 to 10 days
Protocol: To determine whether these compounds effect primary MM colony growth bone marrow aspirates from MM patients were partially-purified by magnetic bead separation and analyzed for immunoglobulin heavy-chain gene rearrangement by PCR. Cells were grown as colonies in methyl-cellulose in the presence or absence of AG compound as noted for 7 to 10 days. Control colonies were examined for Ig heavy chain gene rearrangement to confirm the clonal nature of the population.

Jak2/Stat3 signaling = conditions: literature; cited from earlier work
U266 MM cells = assay: MTT cell growth and survival assay, U266 MM cells; type: cell-based; conditions: 72 hours
Protocol: as §2, §3

OCI MM cells = assay: MTT cell growth and survival assay, OCI MM cells; type: cell-based; conditions: 72 hours
Protocol: as §2, §3

Stat3 [7] = assay: IL-6 mediated Stat3 activation (p-Stat3 immunoblot) in MM cells; type: cell-based; parameters: key to P-Stat 3: (inhibition = ↓); (no effect) = —
Protocol: To examine the effect of newly synthesized AG and WP compounds on cytokine-mediated Stat activation, multiple myeloma (MM-1) cells were pretreated with AG490 or AG1801 at 2.5, 12, and 25 μM concentrations (for 2 hr) before stimulating cells with IL-6 or IFN-α for 10 min. Stat3 and Stat1 expression and activation were examined by immunoblotting.
To determine the effect of compounds on both Stat3 activation and c-myc protein expression MM-1, OCI-My5 and U266 cells were incubated with 25 μM of AG1801, AG490, WP1038, WP1039, WP1051, or WP1052 for 2 hours before cells were stimulated with 2 ng/ml IL-6 for 10 min. Cell lysates were prepared and immunoblotted for p-Stat3, Stat3, c-myc and actin (as a control). Both Stat3 activation and c-myc expression were effected by WP and AG compounds.

[8] = literature; cited from earlier work

In the case of `C[C@H](NC(=O)/C(C#N)=C/c1cccc(Br)n1)c1ccccc1` [WP 1066], the c-myc expression (c-myc [1]; LP cells, 3-25 μM) is reported as “reduced c-myc expression”, the “Downregulation of c-myc protein” value (c-myc [1]; LP cells, 5, 15, 30, 60 min) is reported as “rapid downregulation of c-myc protein” and the “Reduction in c-myc at shortest incubation” value (c-myc [1]; LP cells, 5 min) is reported as “strong reduction”. The “Cell proliferation and/or survival in multiple cancer cell lines” value [2] was “dose-dependent anti-tumor effects; also recorded: effective in reducing cell proliferation”, the “IL-6 mediated Stat3 activation” value (Stat3 [3]) was “blocked IL-6 mediated Stat3 activation; also recorded: slightly better activity than WP1015” and the “Tumor size / tumor volume in vivo” value [4] was “decrease tumor size; also recorded: reduces tumor volume”. The IC50 (MM-1 MM cells) was 1.3 µM, the “Suppression of c-myc protein expression” value (c-myc [5]; 1.56-25 μM WP compounds, CHX 0-30 min at much higher concentrations) was “more active in suppressing c-myc protein expression than WP1015” and the C-Myc (c-myc [5]) was “↓”. The “Inhibition of c-myc/Stat3” value (c-myc/Stat3) was “Strong inhibition”.

In the case of `N#C/C(=C\c1ccc(O)c(O)c1)C(=O)NCc1ccccc1` [AG 490, reference compound], the “Caspase activation (caspase 3 and caspase 8)” value (OCI-My5 cells) is reported as “ineffective”, the PARP cleavage (OCI-My5 cells) is reported as “ineffective” and the “Inhibition of MM colony formation” value [6] is reported as “less effective”. The “Concentration needed to achieve inhibition of Jak2/Stat3 signaling and anti-tumor effects” value (Jak2/Stat3 signaling) was 50 to 100 µM, the “Growth and survival of U266 cells (in words)” value (U266 MM cells; MTT, FIG. 2C/3C) was “effective in reducing the growth and survival” and the IC50 (U266 MM cells; Homo sapiens, U-266, MTT assay) was greater than 12.5 µM. The IC50 (OCI MM cells; MTT assay) was greater than 12.5 µM, the “Growth and survival of OCI cells (in words)” value (OCI MM cells; MTT, FIG. 2B/3B) was “effective in reducing the growth and survival” and the IC50 (MM-1 MM cells) was greater than 12.5 µM. For the same compound, the “Growth and survival of MM1 cells (in words)” value (MM-1 MM cells; MTT, FIG. 2A/3A) was “effective in reducing the growth and survival”, the “Suppression of IL-6 signaling (Stat3 activation)” value (Stat3 [7]; MM-1 cells, 2 hr pretreatment, 12 and 25 μM, IL-6 10 min) was “inactive” and the “P-Stat 3” value (Stat3 [7]; Stat3 inhibition, immunoblot) was “↓”. The “P-Stat 3: concentration at which inhibition is seen” value (Stat3 [7]; immunoblot) was greater than 25 µM, the “Activity in animal studies” value [8] was “limited activity” and the “Inhibition of c-myc protein expression” value (c-myc [5]; 6, 12, 25 μM, AG490 up to 50 μM) was “little or no effect”. The “c-myc expression, temporal effects” value (c-myc [5]; MM-1 cells, 25 and 50 μM, 30, 60, 120 min) was “completely unable to affect c-myc expression” and the C-Myc (c-myc [5]) was “↓”.
